# Assay results as given in PubChem BioAssay (NCI).
# Several values for one entry are separate records, joined by “and”; a condition that tells them apart may be missing. Identical values can stand only once.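 Test compounds were applied to cells in 96-well plates for 48 hours at 5 doses. At the GI50, growth is halved. TGI: concentration producing complete growth inhibition.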
# Experiments:
# Test in all cases: growth of human tumour cells (NCI), 48 h
# 786-0 renal = test system: 786-0 renal
# A498 renal = test system: A498 renal
# A549 NSCLC = test system: A549 NSCLC
# ACHN renal = test system: ACHN renal
# BT-549 breast = test system: BT-549 breast
# CAKI-1 renal = test system: CAKI-1 renal
# CCRF-CEM leukemia = test system: CCRF-CEM leukemia
# COLO 205 colon = test system: COLO 205 colon
# DU-145 prostate = test system: DU-145 prostate
# EKVX NSCLC = test system: EKVX NSCLC
# HCC-2998 colon = test system: HCC-2998 colon
# HCT-116 colon = test system: HCT-116 colon
# HCT-15 colon = test system: HCT-15 colon
# HL-60(TB) leukemia = test system: HL-60(TB) leukemia
# HOP-62 NSCLC = test system: HOP-62 NSCLC
# HOP-92 NSCLC = test system: HOP-92 NSCLC
# HS 578T breast = test system: HS 578T breast
# HT29 colon = test system: HT29 colon
# IGROV1 ovarian = test system: IGROV1 ovarian
# K-562 leukemia = test system: K-562 leukemia
# KM12 colon = test system: KM12 colon
# LOX IMVI melanoma = test system: LOX IMVI melanoma
# M14 melanoma = test system: M14 melanoma
# MALME-3M melanoma = test system: MALME-3M melanoma
# MCF7 breast = test system: MCF7 breast
# MDA-MB-231 breast = test system: MDA-MB-231 breast
# MDA-MB-435 = test system: MDA-MB-435
# MOLT-4 leukemia = test system: MOLT-4 leukemia
# NCI-H226 lung = test system: NCI-H226 lung
# NCI-H23 lung = test system: NCI-H23 lung
# NCI-H460 lung = test system: NCI-H460 lung
# NCI-H522 lung = test system: NCI-H522 lung
# NCI/ADR-RES ovarian = test system: NCI/ADR-RES ovarian
# OVCAR-3 ovarian = test system: OVCAR-3 ovarian
# OVCAR-4 ovarian = test system: OVCAR-4 ovarian
# OVCAR-5 ovarian = test system: OVCAR-5 ovarian
# OVCAR-8 ovarian = test system: OVCAR-8 ovarian
# PC-3 prostate = test system: PC-3 prostate
# RPMI-8226 leukemia = test system: RPMI-8226 leukemia
# RXF 393 renal = test system: RXF 393 renal
# SF-268 CNS = test system: SF-268 CNS
# SF-295 CNS = test system: SF-295 CNS
# SF-539 CNS = test system: SF-539 CNS
# SK-MEL-2 melanoma = test system: SK-MEL-2 melanoma
# SK-MEL-28 melanoma = test system: SK-MEL-28 melanoma
# SK-MEL-5 melanoma = test system: SK-MEL-5 melanoma
# SK-OV-3 ovarian = test system: SK-OV-3 ovarian
# SN12C renal = test system: SN12C renal
# SNB-19 CNS = test system: SNB-19 CNS
# SNB-75 CNS = test system: SNB-75 CNS
# SR leukemia = test system: SR leukemia
# SW-620 colon = test system: SW-620 colon
# T-47D breast = test system: T-47D breast
# TK-10 renal = test system: TK-10 renal
# U251 CNS = test system: U251 CNS
# UACC-257 melanoma = test system: UACC-257 melanoma
# UACC-62 melanoma = test system: UACC-62 melanoma
# UO-31 renal = test system: UO-31 renal
smiles,measurement,setting,value
CN1CCN(Cc2ccc(NC(=O)c3cncc(C#Cc4cnc5ccc(NC6CCOCC6)nn45)c3)cc2C(F)(F)F)CC1,GI50,786-0 renal,202 nM and 90 nM
same,TGI,786-0 renal,742 nM and 355 nM
same,GI50,A498 renal,161 nM and 214 nM
same,TGI,A498 renal,425 nM and 366 nM
same,GI50,A549 NSCLC,84.1 nM and 74.8 nM
same,TGI,A549 NSCLC,459 nM and 671 nM
same,GI50,ACHN renal,161 nM and 155 nM
same,TGI,ACHN renal,736 nM and 965 nM
same,GI50,BT-549 breast,120 nM and 275 nM
same,TGI,BT-549 breast,770 nM and 860 nM
same,GI50,CAKI-1 renal,98.7 nM and 39.5 nM
same,GI50,CCRF-CEM leukemia,20.5 nM
same,GI50,COLO 205 colon,24.6 nM and 33.6 nM
same,TGI,COLO 205 colon,90.7 nM and 127 nM
same,GI50,DU-145 prostate,125 nM and 60.9 nM
same,TGI,DU-145 prostate,2160 nM and 431 nM
same,GI50,EKVX NSCLC,98.8 nM and 102 nM
same,TGI,EKVX NSCLC,903 nM and 591 nM
same,GI50,HCC-2998 colon,226 nM and 189 nM
same,TGI,HCC-2998 colon,2460 nM and 519 nM
same,GI50,HCT-116 colon,71.6 nM and 18.3 nM
same,TGI,HCT-116 colon,265 nM and 455 nM
same,GI50,HCT-15 colon,324 nM and 205 nM
same,TGI,HCT-15 colon,5100 nM and 667 nM
same,GI50,HL-60(TB) leukemia,139 nM and 43.2 nM
same,TGI,HL-60(TB) leukemia,384 nM and 336 nM
same,GI50,HOP-62 NSCLC,59.9 nM and 43.3 nM
same,TGI,HOP-62 NSCLC,507 nM and 300 nM
same,GI50,HOP-92 NSCLC,36.7 nM and 15.6 nM
same,TGI,HOP-92 NSCLC,175 nM and 69.4 nM
same,GI50,HS 578T breast,54.2 nM and 31.7 nM
same,TGI,HS 578T breast,368 nM and 335 nM
same,GI50,HT29 colon,115 nM and 70.4 nM
same,TGI,HT29 colon,506 nM and 501 nM
same,GI50,IGROV1 ovarian,84.7 nM and 20.8 nM
same,TGI,IGROV1 ovarian,321 nM and 212 nM
same,GI50,K-562 leukemia,5 nM
same,TGI,K-562 leukemia,741 nM and 108 nM
same,GI50,KM12 colon,5 nM
same,TGI,KM12 colon,667 nM and 389 nM
same,GI50,LOX IMVI melanoma,55.5 nM and 24.8 nM
same,TGI,LOX IMVI melanoma,140 nM and 172 nM
same,GI50,M14 melanoma,66.4 nM and 49.4 nM
same,TGI,M14 melanoma,156 nM and 200 nM
same,GI50,MALME-3M melanoma,99.6 nM and 78 nM
same,TGI,MALME-3M melanoma,588 nM and 246 nM
same,GI50,MCF7 breast,41.5 nM
same,TGI,MCF7 breast,543 nM and 377 nM
same,GI50,MDA-MB-231 breast,48.2 nM and 19.6 nM
same,TGI,MDA-MB-231 breast,219 nM and 241 nM
same,GI50,MDA-MB-435,119 nM and 63 nM
same,TGI,MDA-MB-435,761 nM and 268 nM
same,GI50,MOLT-4 leukemia,42 nM
same,TGI,MOLT-4 leukemia,1140 nM and 612 nM
same,GI50,NCI-H226 lung,67.5 nM
same,TGI,NCI-H226 lung,5790 nM
same,GI50,NCI-H23 lung,114 nM
same,TGI,NCI-H23 lung,529 nM
same,GI50,NCI-H460 lung,62.7 nM and 33.9 nM
same,TGI,NCI-H460 lung,837 nM and 197 nM
same,GI50,NCI-H522 lung,42.3 nM and 20.2 nM
same,TGI,NCI-H522 lung,116 nM and 137 nM
same,GI50,NCI/ADR-RES ovarian,2640 nM and 1670 nM
same,TGI,NCI/ADR-RES ovarian,10900 nM and 4620 nM
same,GI50,OVCAR-3 ovarian,135 nM and 70.3 nM
same,TGI,OVCAR-3 ovarian,752 nM and 300 nM
same,GI50,OVCAR-4 ovarian,157 nM and 102 nM
same,TGI,OVCAR-4 ovarian,5950 nM and 733 nM
same,GI50,OVCAR-5 ovarian,125 nM and 149 nM
same,TGI,OVCAR-5 ovarian,752 nM and 773 nM
same,GI50,OVCAR-8 ovarian,107 nM and 65.2 nM
same,TGI,OVCAR-8 ovarian,645 nM and 495 nM
same,GI50,PC-3 prostate,108 nM and 114 nM
same,TGI,PC-3 prostate,5340 nM and 1160 nM
same,GI50,RPMI-8226 leukemia,136 nM and 123 nM
same,TGI,RPMI-8226 leukemia,434 nM and 456 nM
same,GI50,RXF 393 renal,58.9 nM and 39.5 nM
same,TGI,RXF 393 renal,174 nM and 180 nM
same,GI50,SF-268 CNS,74.3 nM and 42.9 nM
same,TGI,SF-268 CNS,930 nM and 293 nM
same,GI50,SF-295 CNS,63.2 nM and 208 nM
same,TGI,SF-295 CNS,3810 nM and 812 nM
same,GI50,SF-539 CNS,17.6 nM and 17.5 nM
same,TGI,SF-539 CNS,83.2 nM and 112 nM
same,GI50,SK-MEL-2 melanoma,95.1 nM and 111 nM
same,TGI,SK-MEL-2 melanoma,197 nM and 246 nM
same,GI50,SK-MEL-28 melanoma,179 nM and 155 nM
same,TGI,SK-MEL-28 melanoma,986 nM and 344 nM
same,GI50,SK-MEL-5 melanoma,296 nM and 158 nM
same,TGI,SK-MEL-5 melanoma,1030 nM and 312 nM
same,GI50,SK-OV-3 ovarian,116 nM
same,TGI,SK-OV-3 ovarian,439 nM
same,GI50,SN12C renal,24.1 nM and 21.5 nM
same,TGI,SN12C renal,804 nM and 549 nM
same,GI50,SNB-19 CNS,137 nM and 174 nM
same,TGI,SNB-19 CNS,4370 nM and 882 nM
same,GI50,SNB-75 CNS,67.8 nM
same,TGI,SNB-75 CNS,198 nM and 22.4 nM
same,GI50,SR leukemia,35.5 nM
same,TGI,SR leukemia,506 nM and 351 nM
same,GI50,SW-620 colon,76.6 nM and 21.3 nM
same,TGI,SW-620 colon,1640 nM and 167 nM
same,GI50,T-47D breast,165 nM and 167 nM
same,TGI,T-47D breast,1480 nM and 973 nM
same,GI50,TK-10 renal,156 nM
same,TGI,TK-10 renal,759 nM
same,GI50,U251 CNS,125 nM and 134 nM
same,TGI,U251 CNS,610 nM and 349 nM
same,GI50,UACC-257 melanoma,203 nM and 191 nM
same,TGI,UACC-257 melanoma,1420 nM and 614 nM
same,GI50,UACC-62 melanoma,120 nM and 145 nM
same,TGI,UACC-62 melanoma,685 nM and 323 nM
same,GI50,UO-31 renal,584 nM and 235 nM
same,TGI,UO-31 renal,3050 nM and 749 nM
c1ccc(-c2c(-c3ccccc3)[n+](Cc3ccc4ccccc4c3)c(-c3ccccc3)n2Cc2ccc3ccccc3c2)cc1,GI50,786-0 renal,352 nM
same,TGI,786-0 renal,1860 nM
same,GI50,ACHN renal,401 nM
same,TGI,ACHN renal,1390 nM
same,GI50,CCRF-CEM leukemia,241 nM
same,TGI,CCRF-CEM leukemia,1240 nM
same,GI50,DU-145 prostate,365 nM
same,TGI,DU-145 prostate,1430 nM
same,GI50,HL-60(TB) leukemia,150 nM
same,TGI,HL-60(TB) leukemia,400 nM
same,GI50,HOP-92 NSCLC,158 nM
same,TGI,HOP-92 NSCLC,592 nM
same,GI50,HS 578T breast,370 nM
same,TGI,HS 578T breast,1830 nM
same,GI50,K-562 leukemia,181 nM
same,TGI,K-562 leukemia,1230 nM
same,GI50,MOLT-4 leukemia,285 nM
same,TGI,MOLT-4 leukemia,1130 nM
same,GI50,NCI-H23 lung,224 nM
same,TGI,NCI-H23 lung,727 nM
same,GI50,PC-3 prostate,200 nM
same,TGI,PC-3 prostate,862 nM
same,GI50,RPMI-8226 leukemia,56.8 nM
same,TGI,RPMI-8226 leukemia,505 nM
same,GI50,SW-620 colon,326 nM
same,TGI,SW-620 colon,1380 nM
same,GI50,UO-31 renal,672 nM
same,TGI,UO-31 renal,2940 nM
